The values that follow come from patent publication US20160207930A1 (LEO PHARMA A/S, priority 2013, published 2016).

The target in one series is T1, NK1 Receptor (Homo sapiens, UniProt P25103).
T1 construct: Measurement of NK1 Receptor Mediated Intracellular [Ca^2+]; Mobilization in U251 MG Cells Using FLIPR; endogenous in cells; host or cells: U251 MG cells
In words: NK1 receptor mediated intracellular [Ca2+] mobilization in U251 MG cells using FLIPR. The format is cell-based. The note with it: antagonism of Substance P (EC80), Fluo-4, read-out: NK1R mediated intracellular [Ca^2+] mobilization IC 50. As for the experimental part:
Measurement of NK1 Receptor Mediated Intracellular [Ca^2+] Mobilization in U251 MG Cells Using FLIPR
U251 MG cells were seeded into black walled clear-bottom 384-well plates (Greiner Bio-One GmbH, Frickenhausen, Germany) at a density of 15,000 cells/well in 50 μl culture medium and cultured overnight in a 37° C. 5% CO2 incubator. The cells were then loaded with the calcium sensitive dye Fluo-4 (Invitrogen) at 1 μM in buffer, containing 0.04% Pluronic F-127 (Sigma-Aldrich), and 2.5 mM probenecid (Sigma-Aldrich) for 60 min in a humidified atmosphere of 5% CO2. Thereafter, cells were washed three times in washing buffer containing 20 mM HEPES and 2.5 mM probenecid pH 7.3. Serial dilutions of test compounds in assay buffer containing 2% dimethyl sulfoxide (final concentration in the cell plate is 0.5% DMSO) and/or agonist were then automatically pipetted into each test well, and the peak fluorescence intensity was recorded (lex, 488 nm; lem, 540 nm) by the FLIPR instrument (Molecular Devices) for approximately 5 min. To measure antagonist potency, cell plates were first incubated with the test compound and intracellular fluorescence recorded for 5 minutes to check a potential agonist effect of the test compound. Cell plates were quickly removed from the FLIPR instrument and incubated for additional 10 minutes at 37° C. before being moved back to the FLIPR instrument for Substance P (EC80) addition. The response was measured as the peak relative fluorescence change after agonist addition.
Compound relative %-effect was normalized to the maximal response evoked by 100 nM Aprepitant in presence of the EC80 of Substance P and the antagonist potency determined by non-linear regression using GraphPad Prism (version 5) or the four-parameter logistic model in XLfit (IDBS, Guilford, UK) for Microsoft Excel (Microsoft, Redmond, Wash.). The IC50 value is defined as the molar concentration of a test compound that produces a response midway between the fitted top and the fitted bottom. pIC50=−log IC50
Formula is listed as follows:
Fit (% Effect calculated)=(A+((B−A)/(1+((C/X)̂D)))) • A: bottom value • B: top value • C: test compound concentration • X: Relative IC50 • D: Hill slope coefficient
Ref: Sullivan E, Tucker E M, and Dale I L. Measurement of [Ca^2+] using the Fluorometric Imaging Plate Reader (FLIPR). Methods Mol Biol 114:125-133, 1999.
Compounds of the present invention were tested according to example 100.

Series [1] in a line: Hepatic intrinsic clearance following incubation in human liver microsomes. The class given is in vitro ADME. The note with it: 0.5 μM test compound, NADPH, 0-30 min, scaled to g liver. As for the experimental part: Hepatic Extraction Ratio from Hepatic Intrinsic Clearance Following Incubation in Human Liver Microsomes
The general procedure consists of an automated incubation system and LC-MS/MS analysis with human liver microsomes. Human liver microsomes are thawed rapidly in a waterbath at 37° C. and kept on ice until use. The human liver microsomes are diluted with 50 mM potassium phosphate buffer pH 7.4 to a protein concentration of 0.55 mg/mL. Test compounds and positive controls (Verapamil and Dextromethorphan, positive controls for CYP3A4 for CYP2D6 isoforms, respectively) are dissolved in methanol (or other appropriate solvent, if necessary) in order to obtain a 5 mM solution which is further diluted to the concentration of 50 μM. The stock solutions are prepared immediately before the test.
5 μL of 50 μM test compounds and controls are added to 445 μL-of the 0.55 mg/mL microsomes solution and the incubation mixture are pre-warmed at 37° C. for 5 minutes. The incubation reactions are initiated by adding 50 μL of pre-warmed NADPH regenerating system to the incubation mixtures. 50 μL-aliquots will be taken from the incubation mixtures at: 0, 3, 6, 9, 15 and 30 minutes and the reactions are stopped by adding 100 μL of ACN containing Rolipram, used as generic Internal Standard (IS). Samples are then diluted with 120 μL of Milli-Q water and centrifuged at 3000 rpm for 10 minutes, prior the LC-MS/MS analysis.
The integrated peak areas for test compounds at the selected time points are divided by the respective peak areas of the IS and the percent of parent remaining is calculated by normalizing the peak area ratio of parent to IS at 0 min. Observed rate constant (kobs) for parent degradation is calculated by determining the slope of the line of the graph of the natural log of percentage parent remaining versus time of incubation. From the rate of depletion (min−1) and volume of the incubation (mL), clearance is estimated. This is scaled for the protein in the incubation relative to that in the intact liver, for all species (mL/min/g liver).
Values for the Human in vitro Clint are expressed as mL/min/g liver.
Assuming a liver weight of 25.7 g/kg and a liver blood flow of 20.7 mL/min/kg, the hepatic extraction ratio, Eh, can be derived from the Human in vitro Clint:
E.g. a Human in vitro Clint of 2.4 mL/min/g liver corresponds to a hepatic extraction ratio of 75%.
Some compounds of the present invention were tested according to example 101.
In general terms: Microsomes from liver hold many membrane-bound enzymes, among them those of drug oxidation.

T1 sequence (P25103 whole entry): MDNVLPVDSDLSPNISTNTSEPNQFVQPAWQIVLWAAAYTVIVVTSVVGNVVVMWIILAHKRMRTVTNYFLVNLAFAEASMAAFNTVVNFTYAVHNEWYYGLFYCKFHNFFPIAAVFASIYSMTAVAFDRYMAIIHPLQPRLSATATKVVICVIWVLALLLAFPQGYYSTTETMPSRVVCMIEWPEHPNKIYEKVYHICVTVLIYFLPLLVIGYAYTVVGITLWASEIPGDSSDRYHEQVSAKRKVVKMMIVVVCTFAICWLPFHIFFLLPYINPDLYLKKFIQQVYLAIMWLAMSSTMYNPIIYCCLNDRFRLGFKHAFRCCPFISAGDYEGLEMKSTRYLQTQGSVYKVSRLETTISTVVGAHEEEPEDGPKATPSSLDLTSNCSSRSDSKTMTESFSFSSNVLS

Regarding `Cc1cc([C@@H](C)N(C)C(=O)N2CCN3C(=O)CCC3C2c2ccc(C)cc2C)cc(C(F)(F)F)c1` (single isomer, unassigned) [Compound 4], the IC50 on NK1 Receptor is 9.26 nM. In addition, the “Human in vitro Clint” value in series [1] was more than 200 mL/min/g.
The matching figures for `Cc1nn(C)cc1[C@H]1[C@@H]2CCC(=O)N2CCN1C(=O)N(C)[C@H](C)c1cc(C(F)(F)F)cc(C(F)(F)F)c1` [Compound 64, (1S,8aS)—N—((R)-1-(3,5-bis(trifluoromethyl)phenyl)ethyl)-1-(1,3-dimethyl-1H-pyrazol-4-yl)-N-methyl-6-oxohexahydropyrrolo[1,2-a]pyrazine-2(1H)-carboxamide]: 1.23 nM and 67 mL/min/g.
The corresponding values for `Cc1cccc([C@H]2[C@@H]3CC(CCO)(CCO)C(=O)N3CCN2C(=O)N(C)[C@H](C)c2cc(C(F)(F)F)cc(C(F)(F)F)c2)c1C` [Compound 39, (1S,8aS)—N—((R)-1-(3,5-bis(trifluoromethyl)phenyl)ethyl)-1-(2,3-dimethylphenyl)-7,7-bis(2-hydroxyethyl)-N-methyl-6-oxohexahydropyrrolo[1,2-a]pyrazine-2(1H)-carboxamide] are 0.119 nM and more than 200 mL/min/g.
For `C[C@H](c1cc(C(F)(F)F)cc(C(F)(F)F)c1)N(C)C(=O)N1CCN2C(=O)CC[C@H]2[C@@H]1c1cccs1` [Compound 53, (1R,8aS)—N—((R)-1-(3,5-bis(trifluoromethyl)phenyl)ethyl)-N-methyl-6-oxo-1-(thiophen-2-yl)hexahydropyrrolo[1,2-a]pyrazine-2(1H)-carboxamide], the IC50 at NK1 Receptor worked out at 0.43 nM. For the same compound, in series [1], the “Human in vitro Clint” value was more than 200 mL/min/g.
The matching figures for `Cc1csc([C@H]2[C@@H]3CCC(=O)N3CCN2C(=O)N(C)[C@H](C)c2cc(C(F)(F)F)cc(C(F)(F)F)c2)c1C` [Compound 75, (1R,8aS)—N—((R)-1-(3,5-bis(trifluoromethyl)phenyl)ethyl)-1-(3,4-dimethylthiophen-2-yl)-N-methyl-6-oxohexahydropyrrolo[1,2-a]pyrazine-2(1H)-carboxamide]: 0.34 nM and more than 200 mL/min/g.
Turning to `Cc1cccnc1[C@H]1[C@@H]2CCC(=O)N2CCN1C(=O)N(C)[C@H](C)c1cc(C(F)(F)F)cc(C(F)(F)F)c1` [Compound 43, (1R,8aS)—N—((R)-1-(3,5-bis(trifluoromethyl)phenyl)ethyl)-N-methyl-1-(3-methylpyridin-2-yl)-6-oxo-hexahydropyrrolo[1,2-a]pyrazine-2(1H)-carboxamide], the IC50 on NK1 Receptor was found to be 2.97 nM.
Turning to `CCc1cc([C@@H](C)N(C)C(=O)N2CCN3C(=O)CC[C@H]3[C@@H]2c2cccc(C)c2C)cc(C(F)(F)F)c1` [Compound 41, (1S,8aS)-1-(2,3-dimethylphenyl)-N—((R)-1-(3-ethyl-5-(trifluoromethyl)phenyl)ethyl)-N-methyl-6-oxo-hexahydropyrrolo[1,2-a]pyrazine-2(1H)-carboxamide], the IC50 on NK1 Receptor came out at 0.111 nM. Moreover, in series [1], the “Human in vitro Clint” value is more than 200 mL/min/g.
The matching figures for `C[C@H](c1cc(C(F)(F)F)cc(C(F)(F)F)c1)N(C)C(=O)N1CCN2C(=O)CC[C@H]2[C@@H]1c1cncs1` [Compound 59, (1R,8aS)—N—((R)-1-(3,5-bis(trifluoromethyl)phenyl)ethyl)-N-methyl-6-oxo-1-(thiazol-5-yl)-hexahydropyrrolo[1,2-a]pyrazine-2(1H)-carboxamide]: 29.4 nM and more than 200 mL/min/g.
The corresponding values for `Cc1cccc([C@H]2[C@@H]3CCC(=O)N3CCN2C(=O)N(C)[C@H](C)c2cc(C(F)(F)F)cc(C(F)(F)F)c2)c1C` [Compound 40, (1S,8aS)—N—((R)-1-(3,5-bis(trifluoromethyl)phenyl)ethyl)-1-(2,3-dimethylphenyl)-N-methyl-6-oxo-hexahydropyrrolo[1,2-a]pyrazine-2(1H)-carboxamide] are 0.197 nM and more than 200 mL/min/g.
With `CCc1ccccc1[C@H]1[C@@H]2CCC(=O)N2CCN1C(=O)N(C)[C@H](C)c1cc(C(F)(F)F)cc(C(F)(F)F)c1` (single isomer, unassigned) [Compound 69], the IC50 at NK1 Receptor is 11 nM. In addition, in series [1], the “Human in vitro Clint” value was more than 200 mL/min/g.
The matching figures for `CCc1cc([C@@H](C)N(C)C(=O)N2CCN3C(=O)CC[C@H]3[C@@H]2c2ccccc2CC)cc(C(F)(F)F)c1` (single isomer, unassigned) [Compound 71]: 49 nM and more than 200 mL/min/g.
The corresponding values for `CCc1cc([C@@H](C)N(C)C(=O)N2CCN3C(=O)CC[C@H]3[C@@H]2c2ccccc2C)nc(C(F)(F)F)c1` [Compound 32, (1S,8aS)—N—((R)-1-(4-ethyl-6-(trifluoromethyl)pyridin-2-yl)ethyl)-N-methyl-6-oxo-1-o-tolylhexahydropyrrolo[1,2-a]pyrazine-2(1H)-carboxamide] are 0.66 nM and more than 200 mL/min/g.
Consider `Cc1ncccc1[C@H]1[C@@H]2CCC(=O)N2CCN1C(=O)N(C)[C@H](C)c1cc(C(F)(F)F)cc(C(F)(F)F)c1` [Compound 47, (1S,8aS)—N—((R)-1-(3,5-bis(trifluoromethyl)phenyl)ethyl)-N-methyl-1-(2-methylpyridin-3-yl)-6-oxo-hexahydropyrrolo[1,2-a]pyrazine-2(1H)-carboxamide], for which the IC50 on NK1 Receptor was found to be 0.893 nM.
Still for that read-out and setting: for `C[C@H](c1cc(C(F)(F)F)cc(C(F)(F)F)c1)N(C)C(=O)N1CCN2C(=O)CC[C@H]2[C@@H]1c1ccc(F)cc1Cl` (single isomer, unassigned) [Compound 84] the value was 1.15 nM; for `C[C@H](c1cc(C(F)(F)F)cc(C(F)(F)F)c1)N(C)C(=O)N1CCN2C(=O)CC[C@H]2[C@@H]1c1ccc(F)cc1Cl` (single isomer, unassigned) [Compound 83], 0.06 nM; for `C[C@H](c1cc(C(F)(F)F)cc(C(F)(F)F)c1)N(C)C(=O)N1CCN2C(=O)CC[C@H]2[C@@H]1c1ccccc1Cl` (single isomer, unassigned) [Compound 72], 0.02 nM.
`Cc1n[nH]cc1[C@H]1[C@@H]2CCC(=O)N2CCN1C(=O)N(C)[C@H](C)c1cc(C(F)(F)F)cc(C(F)(F)F)c1` [Compound 60, (1S,8aS)—N—((R)-1-(3,5-bis(trifluoromethyl)phenyl)ethyl)-N-methyl-1-(3-methyl-1H-pyrazol-4-yl)-6-oxohexahydropyrrolo[1,2-a]pyrazine-2(1H)-carboxamide]: the IC50 on NK1 Receptor came out at 31.8 nM.
The same measure, in the same setting: the value for `C[C@H](c1cc(C(F)(F)F)cc(C(F)(F)F)c1)N(C)C(=O)N1CCN2C(=O)CC[C@H]2[C@@H]1c1ccccc1Cl` (single isomer, unassigned) [Compound 73] was 1.38 nM.
